Laboratory results: the supplement of paper PMC11451515

System: SEM cells
Assay: cell viability relative to DMSO control; higher = less cytotoxic
Settings: 48 h
How it was run: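 Cells were incubated for 48 h at 37°C before CellTiter-Glo One luminescence was read. The cells were NOMO1 or SEM (500 cells/well) or P12-Ichikawa (1000 cells/well) leukemia cells, adapted for at least four passages in each medium and seeded in 1536-well plates (5 μl). Dosing used library compounds in DMSO applied by pin over 11 threefold points, 47 μM to 0.79 nM. Viability is the per-plate percentage of DMSO wells, with cell-free wells as background.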

[1] = HPLM + 10% dialyzed FBS, 0.000781 µM
[2] = HPLM + 10% dialyzed FBS, 0.00234 µM
[3] = HPLM + 10% dialyzed FBS, 0.00702 µM
[4] = HPLM + 10% dialyzed FBS, 0.0211 µM
[5] = HPLM + 10% dialyzed FBS, 0.0632 µM
[6] = HPLM + 10% dialyzed FBS, 0.19 µM
[7] = HPLM + 10% dialyzed FBS, 0.569 µM
[8] = HPLM + 10% dialyzed FBS, 1.71 µM
[9] = HPLM + 10% dialyzed FBS, 5.12 µM
[10] = HPLM + 10% dialyzed FBS, 15.4 µM
[11] = HPLM + 10% dialyzed FBS, 46.1 µM
[12] = RPMI 5 mM glucose + 10% dialyzed FBS, 0.000781 µM
[13] = RPMI 5 mM glucose + 10% dialyzed FBS, 0.00234 µM
[14] = RPMI 5 mM glucose + 10% dialyzed FBS, 0.00702 µM
[15] = RPMI 5 mM glucose + 10% dialyzed FBS, 0.0211 µM
[16] = RPMI 5 mM glucose + 10% dialyzed FBS, 0.0632 µM
[17] = RPMI 5 mM glucose + 10% dialyzed FBS, 0.19 µM
[18] = RPMI 5 mM glucose + 10% dialyzed FBS, 0.569 µM
[19] = RPMI 5 mM glucose + 10% dialyzed FBS, 1.71 µM
[20] = RPMI 5 mM glucose + 10% dialyzed FBS, 5.12 µM
[21] = RPMI 5 mM glucose + 10% dialyzed FBS, 15.4 µM
[22] = RPMI 5 mM glucose + 10% dialyzed FBS, 46.1 µM
[23] = RPMI 5 mM glucose + 10% FBS, 0.000781 µM
[24] = RPMI 5 mM glucose + 10% FBS, 0.00234 µM
[25] = RPMI 5 mM glucose + 10% FBS, 0.00702 µM
[26] = RPMI 5 mM glucose + 10% FBS, 0.0211 µM
[27] = RPMI 5 mM glucose + 10% FBS, 0.0632 µM
[28] = RPMI 5 mM glucose + 10% FBS, 0.19 µM
[29] = RPMI 5 mM glucose + 10% FBS, 0.569 µM
[30] = RPMI 5 mM glucose + 10% FBS, 1.71 µM
[31] = RPMI 5 mM glucose + 10% FBS, 5.12 µM
[32] = RPMI 5 mM glucose + 10% FBS, 15.4 µM
[33] = RPMI 5 mM glucose + 10% FBS, 46.1 µM

## Cc1cccc(Nc2nc(-c3ccncc3)cs2)c1
[1]
  cell viability: 86.5%
[2]
  cell viability: 115%
[3]
  cell viability: 88.8%
[4]
  cell viability: 98.3%
[5]
  cell viability: 99.5%
[6]
  cell viability: 126%
[7]
  cell viability: 104%
[8]
  cell viability: 117%
[9]
  cell viability: 118%
[10]
  cell viability: 112%
[11]
  cell viability: 59.5%
[12]
  cell viability: 92.4%
[13]
  cell viability: 141%
[14]
  cell viability: 84%
[15]
  cell viability: 116%
[16]
  cell viability: 109%
[17]
  cell viability: 125%
[18]
  cell viability: 134%
[19]
  cell viability: 130%
[20]
  cell viability: 123%
[21]
  cell viability: 96.3%
[22]
  cell viability: 46.2%

## C[C@@]12C[C@@]3(O)O[C@@H](O1)[C@]1(COC(=O)c4ccccc4)[C@H]3C[C@@]12O[C@@H]1O[C@H](CO)[C@@H](O)[C@H](O)[C@H]1O
[1]
  cell viability: 96%
[2]
  cell viability: 91.2%
[3]
  cell viability: 109%
[4]
  cell viability: 117%
[5]
  cell viability: 98.5%
[6]
  cell viability: 103%
[7]
  cell viability: 108%
[8]
  cell viability: 96.7%
[9]
  cell viability: 107%
[10]
  cell viability: 113%
[11]
  cell viability: 107%
[23]
  cell viability: 105%
[24]
  cell viability: 87%
[25]
  cell viability: 101%
[26]
  cell viability: 100%
[27]
  cell viability: 124%
[28]
  cell viability: 92.6%
[29]
  cell viability: 116%
[30]
  cell viability: 138%
[31]
  cell viability: 111%
[32]
  cell viability: 105%
[33]
  cell viability: 98.9%
[12]
  cell viability: 99%
[13]
  cell viability: 89.8%
[14]
  cell viability: 118%
[15]
  cell viability: 122%
[16]
  cell viability: 121%
[17]
  cell viability: 101%
[18]
  cell viability: 119%
[19]
  cell viability: 115%
[20]
  cell viability: 122%
[21]
  cell viability: 107%
[22]
  cell viability: 122%

## CC(C)C[C@@H](C=O)NC(=O)[C@H](CC(C)C)NC(=O)[C@H](CC(C)C)NC(=O)OCc1ccccc1
[1]
  cell viability: 108%
[2]
  cell viability: 115%
[3]
  cell viability: 126%
[4]
  cell viability: 122%
[5]
  cell viability: 148%
[6]
  cell viability: 139%
[7]
  cell viability: 81.8%
[8]
  cell viability: 9.69%
[9]
  cell viability: 9.22%
[10]
  cell viability: 8.52%
[11]
  cell viability: 8.11%
[23]
  cell viability: 111%
[24]
  cell viability: 131%
[25]
  cell viability: 124%
[26]
  cell viability: 143%
[27]
  cell viability: 124%
[28]
  cell viability: 127%
[29]
  cell viability: 10.8%
[30]
  cell viability: 9.94%
[31]
  cell viability: 10%
[32]
  cell viability: 9.17%
[33]
  cell viability: 8.59%

## C=C(C)[C@H]1Cc2c(ccc3c2O[C@@H]2COc4cc(OC)c(OC)cc4[C@@H]2C3=O)O1
[1]
  cell viability: 96%
[2]
  cell viability: 85.9%
[3]
  cell viability: 103%
[4]
  cell viability: 85.1%
[5]
  cell viability: 75.5%
[6]
  cell viability: 92.8%
[7]
  cell viability: 104%
[8]
  cell viability: 94.5%
[9]
  cell viability: 57.1%
[10]
  cell viability: 22.6%
[11]
  cell viability: 14.2%
[23]
  cell viability: 79.7%
[24]
  cell viability: 94.7%
[25]
  cell viability: 89.6%
[26]
  cell viability: 108%
[27]
  cell viability: 60.1%
[28]
  cell viability: 89%
[29]
  cell viability: 87.8%
[30]
  cell viability: 80.2%
[31]
  cell viability: 40.3%
[32]
  cell viability: 15.8%
[33]
  cell viability: 10%
[12]
  cell viability: 101%
[13]
  cell viability: 106%
[14]
  cell viability: 125%
[15]
  cell viability: 106%
[16]
  cell viability: 77%
[17]
  cell viability: 109%
[18]
  cell viability: 91.4%
[19]
  cell viability: 86.7%
[20]
  cell viability: 40.4%
[21]
  cell viability: 23.1%
[22]
  cell viability: 13.3%

## CC(C)C1=C(O)C=C(O)C(=C1)C/2=N/NC(=O)N2C3=CC4=C(C=C3)[N](C)C=C4
[23]
  cell viability: 123%
[24]
  cell viability: 112%
[25]
  cell viability: 116%
[26]
  cell viability: 101%
[27]
  cell viability: 72.5%
[28]
  cell viability: 22.7%
[29]
  cell viability: 25.2%
[30]
  cell viability: 20%
[31]
  cell viability: 23.6%
[32]
  cell viability: 20.7%
[33]
  cell viability: 15.4%
[12]
  cell viability: 113%
[13]
  cell viability: 112%
[14]
  cell viability: 111%
[15]
  cell viability: 114%
[16]
  cell viability: 75.2%
[17]
  cell viability: 34.2%
[18]
  cell viability: 29.6%
[19]
  cell viability: 23.8%
[20]
  cell viability: 25%
[21]
  cell viability: 25.3%
[22]
  cell viability: 22%

## O=c1[nH]c2ccccc2n1C1CCN(Cc2ccc(-c3nc4cc5nc[nH]c5cc4nc3-c3ccccc3)cc2)CC1
[1]
  cell viability: 97.3%
[2]
  cell viability: 103%
[3]
  cell viability: 107%
[4]
  cell viability: 109%
[5]
  cell viability: 105%
[6]
  cell viability: 103%
[7]
  cell viability: 106%
[8]
  cell viability: 64.6%
[9]
  cell viability: 98.3%
[10]
  cell viability: 88.6%
[11]
  cell viability: 86.5%
[23]
  cell viability: 69.5%
[24]
  cell viability: 68.9%
[25]
  cell viability: 79.1%
[26]
  cell viability: 70.3%
[27]
  cell viability: 75.1%
[28]
  cell viability: 77.7%
[29]
  cell viability: 73.2%
[30]
  cell viability: 37.9%
[31]
  cell viability: 60.3%
[32]
  cell viability: 60.2%
[33]
  cell viability: 46.4%
[12]
  cell viability: 89.6%
[13]
  cell viability: 101%
[14]
  cell viability: 109%
[15]
  cell viability: 106%
[16]
  cell viability: 103%
[17]
  cell viability: 115%
[18]
  cell viability: 94.6%
[19]
  cell viability: 50.5%
[20]
  cell viability: 98.9%
[21]
  cell viability: 88.9%
[22]
  cell viability: 70.9%

## CN(C)C1=CC=C(C=C1)C(C2=CC=C(C=C2)N(C)C)=C/3\C=C/C(/C=C3)=[N+](C)C
[1]
  cell viability: 101%
[2]
  cell viability: 98.3%
[3]
  cell viability: 113%
[4]
  cell viability: 98.1%
[5]
  cell viability: 116%
[6]
  cell viability: 9.97%
[7]
  cell viability: 4.77%
[8]
  cell viability: 4.38%
[9]
  cell viability: 4.51%
[10]
  cell viability: 1.71%
[11]
  cell viability: 1.2%
[12]
  cell viability: 104%
[13]
  cell viability: 113%
[14]
  cell viability: 100%
[15]
  cell viability: 85.9%
[16]
  cell viability: 76.1%
[17]
  cell viability: 8.49%
[18]
  cell viability: 4.28%
[19]
  cell viability: 2.86%
[20]
  cell viability: 4.04%
[21]
  cell viability: 1.22%
[22]
  cell viability: 0.974%

## OC1=CC2=C(C(=C1)O)C(=O)\C=C(/O2)C3=CC=CC=C3
[1]
  cell viability: 89.7%
[2]
  cell viability: 92.5%
[3]
  cell viability: 93%
[4]
  cell viability: 107%
[5]
  cell viability: 94.5%
[6]
  cell viability: 112%
[7]
  cell viability: 94.4%
[8]
  cell viability: 115%
[9]
  cell viability: 85%
[10]
  cell viability: 61.9%
[11]
  cell viability: 8.24%
[23]
  cell viability: 88.2%
[24]
  cell viability: 103%
[25]
  cell viability: 106%
[26]
  cell viability: 94.2%
[27]
  cell viability: 105%
[28]
  cell viability: 101%
[29]
  cell viability: 92%
[30]
  cell viability: 104%
[31]
  cell viability: 77.2%
[32]
  cell viability: 35.8%
[33]
  cell viability: 4.9%
[12]
  cell viability: 85.8%
[13]
  cell viability: 96.6%
[14]
  cell viability: 95.3%
[15]
  cell viability: 91.5%
[16]
  cell viability: 99.9%
[17]
  cell viability: 97.7%
[18]
  cell viability: 97.3%
[19]
  cell viability: 111%
[20]
  cell viability: 94.5%
[21]
  cell viability: 59.6%
[22]
  cell viability: 11.9%

## C/C=C(/C)C(=O)O[C@H]1C(C)=C[C@]23C(=O)[C@@H](C=C(CO)[C@@H](O)[C@]12O)[C@H]1[C@@H](C[C@H]3C)C1(C)C
[1]
  cell viability: 93.9%
[2]
  cell viability: 121%
[3]
  cell viability: 87.5%
[4]
  cell viability: 90%
[5]
  cell viability: 92.4%
[6]
  cell viability: 82.1%
[7]
  cell viability: 72%
[8]
  cell viability: 92.5%
[9]
  cell viability: 87.7%
[10]
  cell viability: 70.3%
[11]
  cell viability: 54.9%
[23]
  cell viability: 120%
[24]
  cell viability: 114%
[25]
  cell viability: 101%
[26]
  cell viability: 102%
[27]
  cell viability: 100%
[28]
  cell viability: 71.9%
[29]
  cell viability: 66.9%
[30]
  cell viability: 79.9%
[31]
  cell viability: 82.6%
[32]
  cell viability: 72.7%
[33]
  cell viability: 43.8%
[12]
  cell viability: 115%
[13]
  cell viability: 135%
[14]
  cell viability: 101%
[15]
  cell viability: 107%
[16]
  cell viability: 113%
[17]
  cell viability: 93.7%
[18]
  cell viability: 104%
[19]
  cell viability: 100%
[20]
  cell viability: 91.5%
[21]
  cell viability: 82.4%
[22]
  cell viability: 42.6%
